From PMC3344862, “Structural and Mutational Studies on Substrate Specificity and Catalysis of Salmonella typhimurium D-Cysteine Desulfhydrase” (PLoS ONE, 2012)

What was measured:
StDCyD [1] = biological target: T1, StDCyD (Salmonella enterica, UniProt Q8ZNT7); assay: thermal melting; assay type: binding; details: 10 mM pyruvate; Tm without and with ligand; data not shown
T1 construct: gene dcyD; 36 kDa, dimer in solution; PLP on Lys51
T1 sequence (Q8ZNT7 1-328): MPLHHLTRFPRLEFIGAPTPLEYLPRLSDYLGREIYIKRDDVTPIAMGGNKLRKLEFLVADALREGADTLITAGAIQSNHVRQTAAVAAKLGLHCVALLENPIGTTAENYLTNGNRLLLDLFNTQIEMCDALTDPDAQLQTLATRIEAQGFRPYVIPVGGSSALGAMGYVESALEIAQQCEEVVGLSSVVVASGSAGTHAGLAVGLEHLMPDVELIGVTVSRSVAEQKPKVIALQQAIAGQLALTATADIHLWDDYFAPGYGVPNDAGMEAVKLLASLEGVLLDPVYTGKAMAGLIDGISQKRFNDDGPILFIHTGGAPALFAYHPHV

StDCyD [2] = biological target: T1, StDCyD; assay: X-ray crystallography, crystals soaked with D-Cys or βCDA; assay type: binding; details: second site 4.0-6.0 Å from the active site (Arg222, Ser221); formed from D-Cys (4D8W) or βCDA (4D92)
StDCyD [3] = biological target: T1, StDCyD; assay: X-ray crystallography, co-crystallization with DCS or LCS; assay type: binding; details: active site, not covalently linked to Lys51; formed from PLP by DCS (4D9B) or LCS (4D9C)
StDCyD [4] = biological target: T1, StDCyD; assay: X-ray crystallography, co-crystallization; assay type: binding
StDCyD [5] = biological target: T1, StDCyD; assay: X-ray crystallography, crystal soak; UV-visible spectra; assay type: binding; details: covalent; external aldimine with PLP; 10 mM, about 2 min soak
StDCyD [6] = biological target: T1, StDCyD; assay: X-ray crystallography; absorbance maximum […] nm; assay type: binding; details: covalent; Schiff base with Lys51
[7] = biological target: the molecule itself; assay: SEC; analytical gel filtration of the purified protein

CC(=O)C(=O)O [pyruvate]
Tm with ligand (StDCyD [1]): 80 to 85 °C
X-ray crystallography, crystals soaked with D-Cys or βCDA (StDCyD [2]): The modeled pyruvate is held by hydrogen bonding with Arg222 and Ser221

Cc1ncc(COP(=O)(O)O)c(CN)c1O [PMP]
X-ray crystallography, co-crystallization with DCS or LCS (StDCyD [3]): PMP is not covalently linked to ε-amino group of Lys51

NC1(C(=O)O)CC1 [ACC]
X-ray crystallography, co-crystallization (StDCyD [4]; covalent, external aldimine with PLP, not a substrate): StDCyD cocrystallized with ACC (PDB code: 4D96) revealed that the ligand binds as an external aldimine

N[C@H]1CONC1=O [LCS]
X-ray crystallography, crystal soak; UV-visible spectra (StDCyD [5]): Electron density observed at the active site was consistent with external aldimines of DCS or LCS

N[C@@H](CO)C(=O)O [L-Ser]
X-ray crystallography, co-crystallization (StDCyD [4]; active site, non-covalent, internal aldimine intact, not a substrate): Structures of StDCyD-D-Ser (PDB code: 4D97) and StDCyD-L-Ser (PDB code: 4D99) complexes

Cc1ncc(COP(=O)(O)O)c(C=O)c1O [PLP]
X-ray crystallography; absorbance maximum 417 nm (StDCyD [6]): PLP is bound by a Schiff base linkage to Lys51

N[C@H](CO)C(=O)O [D-Ser]
X-ray crystallography, co-crystallization (StDCyD [4]; active site, non-covalent, internal aldimine intact, poor substrate): Structures of StDCyD-D-Ser (PDB code: 4D97) and StDCyD-L-Ser (PDB code: 4D99) complexes

N[C@@H]1CONC1=O [DCS]
X-ray crystallography, crystal soak; UV-visible spectra (StDCyD [5]): Electron density observed at the active site was consistent with external aldimines of DCS or LCS

B1: Salmonella typhimurium D-cysteine desulfhydrase (enzyme, UniProt Q8ZNT7 1-328, looked up)
chain: T1 sequence (Q8ZNT7 1-328)
modifications: PLP bound by a Schiff base linkage to Lys51
notes: residues 1-328; Cloned in pRSET C; no cleavage of the tag is described; Small domain residues 48-161, large domain residues 1-47 and 162-328; also called StDCyD; DCyD; source: E. coli BL21 (DE3) Rosetta, purified (Ni-NTA, size exclusion chromatography)
stoichiometry N [7]: 2
